Data taken from patent US5873359A, “Methods and devices for treating pulmonary vasoconstriction and asthma” (The General Hospital Corporation, priority 1994, dated 1999).

Columns and labels:
[1] = system: normal bronchial tone; assay: NO effects on normal bronchial tone; format: in vivo, Hartley strain guinea pigs; conditions: 300 ppm NO, without methacholine infusion (FIG. 8)
Experimental: (§1) Male Hartley strain guinea pigs (300-440g body wt) were anesthetized with α-chloralose (50 mg/kg) and urethane (500 mg/kg) (Drazen et al., J. Appl. Physiol. 48:613-618, 1980). A tracheostomy was performed, and the animals were intubated with a tubing adaptor (ID 1.65 mm) and ventilated with a small animal ventilator (Harvard Apparatus, a division of Ealing Scientific, Natick, Mass.) at 8 ml/kg and 60 breaths/min. A jugular vein was cannulated for intravenous administration of drugs. The chest was opened by bilateral excision of a portion of the ribs anteriorly so that the lungs were exposed to atmospheric pressure (Shore and Drazen, J. Appl. Physiol. 67:2504-2511, 1989). A positive end expiratory pressure of 3-4 cmH2 O was provided.
(§2) Guinea pigs were then placed inside a plethysmograph (Amdur and Mead, Am. J. Physiol. 192:363-368, 1958), that was connected to a large reservoir containing copper mesh to maintain the plethysmograph isothermal. Plethysmograph pressure was measured with a differential pressure transducer (Celesco, Canoga Park, Calif.); the opposite side of this transducer was connected to a similar reservoir. Pressure at the airway opening was measured from a side tap in the tracheal canula. Transpulmonary pressure was measured with a differential pressure transducer (Celesco) as the difference between airway opening pressure and the pressure inside the plethysmograph. […]

[2] = system: methacholine bronchoconstriction; assay: NO and terbutaline aerosol during methacholine infusion; format: in vivo, Hartley strain guinea pigs; conditions: NO gas before or after inhaled terbutaline
Experimental: as §1, §2

## [N]=O [NO, nitric oxide]
[1]
  baseline bronchomotor tone: decreased the baseline bronchomotor tone
[2]
  bronchodilating effects of NO plus terbutaline: additive
